Measurements published in PMC9097471, “Development of Selective Phosphatidylinositol 5-Phosphate 4-Kinase γ Inhibitors with a Non-ATP-competitive, Allosteric Binding Mode” (Journal of Medicinal Chemistry, 2022).

Columns and labels:
STK33 = STK33 (Homo sapiens, UniProt Q9BYT3); experiment: Kinase panel, radiometric 33P filter binding; conditions: read-out: % activity remaining
Source text: (§1) filter binding assay using 33P-g-ATPat the MRC PPU International Centre for Kinase Profiling, University of

Lck = Lck (Homo sapiens, UniProt P06239); experiment: Kinase panel, radiometric 33P filter binding; conditions: read-out: % activity remaining
MAP4K3 = MAP4K3 (Homo sapiens, UniProt Q8IVH8); experiment: Kinase panel, radiometric 33P filter binding; conditions: read-out: % activity remaining
Source text: as §1

MELK = MELK (Homo sapiens, UniProt Q14680); experiment: Kinase panel, radiometric 33P filter binding; conditions: read-out: % activity remaining
Source text: as §1
Kinase % activity remaining s.d.

SGK1 = SGK1 (Homo sapiens, UniProt O00141); experiment: Kinase panel, radiometric 33P filter binding; conditions: read-out: % activity remaining
Source text: as §1

ERK2 = ERK2 (Homo sapiens, UniProt P28482); experiment: Kinase panel, radiometric 33P filter binding; conditions: read-out: % activity remaining
Source text: as §1

PHK = PHK (Homo sapiens, UniProt Q16816); experiment: Kinase panel, radiometric 33P filter binding; conditions: read-out: % activity remaining
Source text: as §1

ASK1 = ASK1 (Homo sapiens, UniProt Q99683); experiment: Kinase panel, radiometric 33P filter binding; conditions: read-out: % activity remaining
Source text: as §1

JNK1 = JNK1 (Homo sapiens, UniProt P45983); experiment: Kinase panel, radiometric 33P filter binding; conditions: read-out: % activity remaining
Source text: as §1

MLK1 = MLK1 (Homo sapiens, UniProt P80192); experiment: Kinase panel, radiometric 33P filter binding; conditions: read-out: % activity remaining
Source text: as §1

SRPK1 = SRPK1 (Homo sapiens, UniProt Q96SB4); experiment: Kinase panel, radiometric 33P filter binding; conditions: read-out: % activity remaining
Source text: as §1

MST2 = MST2 (Homo sapiens, UniProt Q13188); experiment: Kinase panel, radiometric 33P filter binding; conditions: read-out: % activity remaining
p38g MAPK = p38g MAPK (Homo sapiens, UniProt P53778); experiment: Kinase panel, radiometric 33P filter binding; conditions: read-out: % activity remaining
Source text: as §1

p38d MAPK = p38d MAPK (Homo sapiens, UniProt O15264); experiment: Kinase panel, radiometric 33P filter binding; conditions: read-out: % activity remaining
Source text: as §1

ZAP70 = ZAP70 (Homo sapiens, UniProt P43403); experiment: Kinase panel, radiometric 33P filter binding; conditions: read-out: % activity remaining
MAPKAP-K2 = MAPKAP-K2 (Homo sapiens, UniProt P49137); experiment: Kinase panel, radiometric 33P filter binding; conditions: read-out: % activity remaining
JAK3 = JAK3 (Homo sapiens, UniProt P52333); experiment: Kinase panel, radiometric 33P filter binding; conditions: read-out: % activity remaining
EF2K = EF2K (Homo sapiens, UniProt O00418); experiment: Kinase panel, radiometric 33P filter binding; conditions: read-out: % activity remaining
Source text: as §1

TrkA = TrkA (Homo sapiens, UniProt P04629); experiment: Kinase panel, radiometric 33P filter binding; conditions: read-out: % activity remaining
Source text: as §1

CSK = CSK (Homo sapiens, UniProt P41240); experiment: Kinase panel, radiometric 33P filter binding; conditions: read-out: % activity remaining
CK2 = CK2 (Homo sapiens, UniProt P68400); experiment: Kinase panel, radiometric 33P filter binding; conditions: read-out: % activity remaining
Source text: as §1

MKK2 = MKK2 (Homo sapiens, UniProt P36507); experiment: Kinase panel, radiometric 33P filter binding; conditions: read-out: % activity remaining
EPH-B2 = EPH-B2 (Homo sapiens, UniProt P29323); experiment: Kinase panel, radiometric 33P filter binding; conditions: read-out: % activity remaining
Source text: as §1

MARK2 = MARK2 (Homo sapiens, UniProt Q7KZI7); experiment: Kinase panel, radiometric 33P filter binding; conditions: read-out: % activity remaining
Source text: as §1

TESK1 = TESK1 (Homo sapiens, UniProt Q15569); experiment: Kinase panel, radiometric 33P filter binding; conditions: read-out: % activity remaining
Source text: as §1

TGFBR1 = TGFBR1 (Homo sapiens, UniProt P36897); experiment: Kinase panel, radiometric 33P filter binding; conditions: read-out: % activity remaining
CAMK1 = CAMK1 (Homo sapiens, UniProt Q14012); experiment: Kinase panel, radiometric 33P filter binding; conditions: read-out: % activity remaining
Source text: as §1

CK1δ = CK1δ (Homo sapiens, UniProt P48730); experiment: Kinase panel, radiometric 33P filter binding; conditions: read-out: % activity remaining
Source text: as §1

PKCz = PKCz (Homo sapiens, UniProt Q05513); experiment: Kinase panel, radiometric 33P filter binding; conditions: read-out: % activity remaining
Source text: as §1

FGF-R1 = FGF-R1 (Homo sapiens, UniProt P11362); experiment: Kinase panel, radiometric 33P filter binding; conditions: read-out: % activity remaining
Source text: as §1

MPSK1 = MPSK1 (Homo sapiens, UniProt O75716); experiment: Kinase panel, radiometric 33P filter binding; conditions: read-out: % activity remaining
Source text: as §1

BTK = BTK (Homo sapiens, UniProt Q06187); experiment: Kinase panel, radiometric 33P filter binding; conditions: read-out: % activity remaining
PI5P4Kβ = biological target: T1, PI5P4Kβ (Homo sapiens, UniProt P78356); experiment: Thermal shift assay; conditions: read-out: ΔTm PI5P4Kβ, thermal shift, compound 63 μM
T1 sequence (P78356 1-416): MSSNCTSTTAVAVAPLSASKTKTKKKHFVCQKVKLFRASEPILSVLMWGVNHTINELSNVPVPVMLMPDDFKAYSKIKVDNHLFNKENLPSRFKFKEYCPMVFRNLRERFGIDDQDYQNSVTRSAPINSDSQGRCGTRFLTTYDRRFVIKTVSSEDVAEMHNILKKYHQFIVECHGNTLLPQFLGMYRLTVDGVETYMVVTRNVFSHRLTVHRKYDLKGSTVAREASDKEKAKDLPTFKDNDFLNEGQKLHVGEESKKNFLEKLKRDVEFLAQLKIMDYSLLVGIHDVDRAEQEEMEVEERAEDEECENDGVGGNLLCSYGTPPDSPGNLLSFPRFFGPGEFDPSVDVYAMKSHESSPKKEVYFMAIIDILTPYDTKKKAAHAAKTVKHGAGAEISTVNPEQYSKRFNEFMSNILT

Chain of PKCz (Q05513 whole entry): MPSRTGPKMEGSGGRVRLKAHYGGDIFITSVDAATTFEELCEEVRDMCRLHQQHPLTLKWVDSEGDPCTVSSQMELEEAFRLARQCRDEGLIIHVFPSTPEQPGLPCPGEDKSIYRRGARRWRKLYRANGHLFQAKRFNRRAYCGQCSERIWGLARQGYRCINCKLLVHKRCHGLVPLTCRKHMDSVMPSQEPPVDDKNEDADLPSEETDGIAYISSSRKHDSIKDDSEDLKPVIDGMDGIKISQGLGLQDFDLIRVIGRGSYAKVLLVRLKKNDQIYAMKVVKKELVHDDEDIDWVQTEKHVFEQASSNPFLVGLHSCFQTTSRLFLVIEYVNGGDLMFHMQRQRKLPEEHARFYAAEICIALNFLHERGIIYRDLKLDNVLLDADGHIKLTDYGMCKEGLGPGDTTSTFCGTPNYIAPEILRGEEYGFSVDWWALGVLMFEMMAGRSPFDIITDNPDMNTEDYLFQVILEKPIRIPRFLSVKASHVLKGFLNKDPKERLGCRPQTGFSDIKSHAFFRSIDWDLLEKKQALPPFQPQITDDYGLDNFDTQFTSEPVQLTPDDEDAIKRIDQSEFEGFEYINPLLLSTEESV
Chain of MELK (Q14680 whole entry): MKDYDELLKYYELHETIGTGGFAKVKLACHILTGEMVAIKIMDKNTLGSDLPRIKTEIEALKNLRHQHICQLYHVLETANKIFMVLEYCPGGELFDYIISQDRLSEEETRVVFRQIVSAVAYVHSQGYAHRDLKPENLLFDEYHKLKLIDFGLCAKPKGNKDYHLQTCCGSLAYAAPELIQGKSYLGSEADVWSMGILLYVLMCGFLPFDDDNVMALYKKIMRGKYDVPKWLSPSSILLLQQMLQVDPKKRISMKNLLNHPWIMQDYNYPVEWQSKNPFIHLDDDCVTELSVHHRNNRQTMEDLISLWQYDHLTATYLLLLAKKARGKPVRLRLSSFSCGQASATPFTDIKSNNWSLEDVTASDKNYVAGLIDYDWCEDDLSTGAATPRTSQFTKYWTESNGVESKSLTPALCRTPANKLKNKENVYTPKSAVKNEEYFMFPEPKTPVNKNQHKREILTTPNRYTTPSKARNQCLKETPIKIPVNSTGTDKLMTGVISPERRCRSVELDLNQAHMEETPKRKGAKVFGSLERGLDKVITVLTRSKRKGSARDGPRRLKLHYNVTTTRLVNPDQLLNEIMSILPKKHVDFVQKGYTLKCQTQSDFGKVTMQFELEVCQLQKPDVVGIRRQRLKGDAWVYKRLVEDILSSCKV
Chain of p38g MAPK (P53778 whole entry): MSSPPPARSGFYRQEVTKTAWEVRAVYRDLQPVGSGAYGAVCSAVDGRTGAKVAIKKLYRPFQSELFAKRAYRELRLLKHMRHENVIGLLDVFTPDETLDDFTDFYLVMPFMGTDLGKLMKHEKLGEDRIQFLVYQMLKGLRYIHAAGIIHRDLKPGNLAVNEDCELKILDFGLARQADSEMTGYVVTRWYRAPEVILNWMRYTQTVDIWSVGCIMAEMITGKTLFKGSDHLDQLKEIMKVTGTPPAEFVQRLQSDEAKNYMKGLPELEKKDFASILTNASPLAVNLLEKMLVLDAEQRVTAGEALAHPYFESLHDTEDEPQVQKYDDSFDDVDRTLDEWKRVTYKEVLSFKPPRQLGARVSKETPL
Chain of STK33 (Q9BYT3 whole entry): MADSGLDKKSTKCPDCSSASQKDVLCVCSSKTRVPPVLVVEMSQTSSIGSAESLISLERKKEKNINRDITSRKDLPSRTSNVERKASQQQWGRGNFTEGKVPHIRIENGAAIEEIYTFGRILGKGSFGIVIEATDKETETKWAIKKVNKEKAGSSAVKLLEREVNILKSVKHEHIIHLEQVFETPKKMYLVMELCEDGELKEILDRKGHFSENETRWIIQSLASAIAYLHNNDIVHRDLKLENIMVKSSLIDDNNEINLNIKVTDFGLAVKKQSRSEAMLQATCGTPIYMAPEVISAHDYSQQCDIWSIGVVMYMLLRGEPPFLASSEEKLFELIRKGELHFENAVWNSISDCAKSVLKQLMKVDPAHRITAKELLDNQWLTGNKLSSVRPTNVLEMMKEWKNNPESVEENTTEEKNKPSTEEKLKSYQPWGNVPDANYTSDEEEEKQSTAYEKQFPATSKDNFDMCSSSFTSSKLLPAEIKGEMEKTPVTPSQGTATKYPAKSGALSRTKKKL
Chain of JNK1 (P45983 whole entry): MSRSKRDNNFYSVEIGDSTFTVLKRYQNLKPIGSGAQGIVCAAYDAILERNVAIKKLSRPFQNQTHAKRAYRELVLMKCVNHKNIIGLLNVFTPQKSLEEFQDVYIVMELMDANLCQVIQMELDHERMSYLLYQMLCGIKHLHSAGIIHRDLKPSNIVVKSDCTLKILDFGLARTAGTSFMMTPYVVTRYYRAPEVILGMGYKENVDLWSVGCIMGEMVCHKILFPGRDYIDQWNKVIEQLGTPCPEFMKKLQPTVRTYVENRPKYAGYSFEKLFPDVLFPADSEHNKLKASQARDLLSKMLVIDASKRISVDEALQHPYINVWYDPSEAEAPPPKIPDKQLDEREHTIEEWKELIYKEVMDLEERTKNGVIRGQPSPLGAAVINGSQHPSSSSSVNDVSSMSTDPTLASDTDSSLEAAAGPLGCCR
Chain of p38d MAPK (O15264 whole entry): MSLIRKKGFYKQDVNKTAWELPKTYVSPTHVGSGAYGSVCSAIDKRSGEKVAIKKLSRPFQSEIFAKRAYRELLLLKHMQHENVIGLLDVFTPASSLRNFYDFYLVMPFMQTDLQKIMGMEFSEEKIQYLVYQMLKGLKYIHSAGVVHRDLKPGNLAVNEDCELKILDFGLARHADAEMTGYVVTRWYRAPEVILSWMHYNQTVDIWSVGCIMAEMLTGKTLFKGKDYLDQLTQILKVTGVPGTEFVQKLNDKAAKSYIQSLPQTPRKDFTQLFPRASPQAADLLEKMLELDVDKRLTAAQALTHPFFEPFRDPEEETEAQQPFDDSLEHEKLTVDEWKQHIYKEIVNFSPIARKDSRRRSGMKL
Chain of MLK1 (P80192 whole entry): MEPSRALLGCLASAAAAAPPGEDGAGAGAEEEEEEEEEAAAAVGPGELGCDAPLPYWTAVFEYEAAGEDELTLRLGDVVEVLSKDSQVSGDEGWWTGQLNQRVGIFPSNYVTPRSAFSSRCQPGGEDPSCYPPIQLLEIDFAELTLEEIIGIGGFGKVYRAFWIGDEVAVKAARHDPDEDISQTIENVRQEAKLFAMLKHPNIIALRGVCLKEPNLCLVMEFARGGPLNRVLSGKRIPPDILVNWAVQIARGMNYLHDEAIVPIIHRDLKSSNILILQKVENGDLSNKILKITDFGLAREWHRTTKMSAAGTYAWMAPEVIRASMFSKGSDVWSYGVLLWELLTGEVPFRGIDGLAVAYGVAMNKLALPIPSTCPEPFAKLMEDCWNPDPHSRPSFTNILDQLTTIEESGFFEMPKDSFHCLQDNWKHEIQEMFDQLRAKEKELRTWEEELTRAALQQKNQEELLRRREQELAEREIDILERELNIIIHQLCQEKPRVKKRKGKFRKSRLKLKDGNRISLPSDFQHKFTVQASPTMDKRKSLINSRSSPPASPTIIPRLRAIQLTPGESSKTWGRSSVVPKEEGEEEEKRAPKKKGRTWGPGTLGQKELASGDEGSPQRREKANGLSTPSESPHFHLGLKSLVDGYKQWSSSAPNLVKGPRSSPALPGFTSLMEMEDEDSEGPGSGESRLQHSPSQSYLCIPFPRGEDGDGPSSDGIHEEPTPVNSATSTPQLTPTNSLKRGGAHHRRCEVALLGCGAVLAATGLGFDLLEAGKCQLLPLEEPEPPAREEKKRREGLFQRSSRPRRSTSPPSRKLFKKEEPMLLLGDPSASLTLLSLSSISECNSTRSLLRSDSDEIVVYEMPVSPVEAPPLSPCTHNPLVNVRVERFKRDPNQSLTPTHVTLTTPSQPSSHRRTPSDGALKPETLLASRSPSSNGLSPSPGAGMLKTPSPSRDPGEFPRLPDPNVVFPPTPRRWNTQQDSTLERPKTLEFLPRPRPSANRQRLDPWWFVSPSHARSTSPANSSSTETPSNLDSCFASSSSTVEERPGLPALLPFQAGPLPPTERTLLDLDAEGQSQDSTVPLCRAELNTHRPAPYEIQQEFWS
Chain of MARK2 (Q7KZI7 whole entry): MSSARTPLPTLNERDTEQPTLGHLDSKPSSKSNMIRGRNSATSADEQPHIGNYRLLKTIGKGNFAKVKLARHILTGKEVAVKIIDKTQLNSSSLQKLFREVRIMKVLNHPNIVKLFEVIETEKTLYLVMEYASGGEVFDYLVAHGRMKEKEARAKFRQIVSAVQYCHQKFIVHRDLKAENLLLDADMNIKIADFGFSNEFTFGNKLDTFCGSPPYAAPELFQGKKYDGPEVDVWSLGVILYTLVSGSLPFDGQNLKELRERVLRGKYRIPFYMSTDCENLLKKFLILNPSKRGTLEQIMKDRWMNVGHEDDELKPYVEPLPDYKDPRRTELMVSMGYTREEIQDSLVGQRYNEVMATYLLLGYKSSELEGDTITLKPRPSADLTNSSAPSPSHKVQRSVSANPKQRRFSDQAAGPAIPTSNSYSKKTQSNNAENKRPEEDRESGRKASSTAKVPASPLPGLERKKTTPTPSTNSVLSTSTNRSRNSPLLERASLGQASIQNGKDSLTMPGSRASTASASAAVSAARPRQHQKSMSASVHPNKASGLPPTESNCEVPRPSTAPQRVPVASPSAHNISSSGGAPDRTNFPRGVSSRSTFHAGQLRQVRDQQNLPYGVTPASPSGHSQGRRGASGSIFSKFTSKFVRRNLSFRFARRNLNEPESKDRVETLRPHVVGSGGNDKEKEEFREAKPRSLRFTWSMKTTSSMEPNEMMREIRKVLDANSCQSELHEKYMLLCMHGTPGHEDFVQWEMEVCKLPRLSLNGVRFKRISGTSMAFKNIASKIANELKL

`CC(C)c1ccccc1-c1nc(NCc2ccccn2)c2c(ccn2C)n1` [Compound 40] showed a remaining activity at 10 µM (STK33) of 99%, a remaining activity at 10 µM (Lck) of 102% and a remaining activity at 10 µM (MAP4K3) of 91%. For the same compound, the remaining activity at 10 µM (MELK) was 95%, the remaining activity at 10 µM (SGK1) was 98% and the remaining activity at 10 µM (ERK2) was 98%. The remaining activity at 10 µM (PHK) was 107%, the remaining activity at 10 µM (ASK1) was 116% and the remaining activity at 10 µM (JNK1) was 86%. For the same compound, the remaining activity at 10 µM (MLK1) was 89%, the remaining activity at 10 µM (SRPK1) was 93% and the remaining activity at 10 µM (MST2) was 115%. It also gave a remaining activity at 10 µM (p38g MAPK) of 105%, a remaining activity at 10 µM (p38d MAPK) of 117% and a remaining activity at 10 µM (ZAP70) of 95%. It also gave a remaining activity at 10 µM (MAPKAP-K2) of 123%, a remaining activity at 10 µM (JAK3) of 97% and a remaining activity at 10 µM (EF2K) of 98%. The remaining activity at 10 µM (TrkA) was 100%, the remaining activity at 10 µM (CSK) was 94% and the remaining activity at 10 µM (CK2) was 90%. It also gave a remaining activity at 10 µM (MKK2) of 115%, a remaining activity at 10 µM (EPH-B2) of 78% and a remaining activity at 10 µM (MARK2) of 101%. For the same compound, the remaining activity at 10 µM (TESK1) was 114%, the remaining activity at 10 µM (TGFBR1) was 91% and the remaining activity at 10 µM (CAMK1) was 97%. The remaining activity at 10 µM (CK1δ) was 100%, the remaining activity at 10 µM (PKCz) was 111% and the remaining activity at 10 µM (FGF-R1) was 92%. For the same compound, the remaining activity at 10 µM (MPSK1) was 106% and the remaining activity at 10 µM (BTK) was 111%.

`FC(F)(F)c1ccccc1-c1nc(NCc2cccs2)c2ccccc2n1` [Compound 1, NIH-12848, reference compound] showed a ΔTm at 63 µM (PI5P4Kβ) of 0.6 ± 0.3 °C.
